Laboratory results: patent US12064408B2, “Compounds for the treatment of obesity and methods of use thereof” (The Children's Medical Center Corporation, priority 2012, dated 2024)

Columns and labels:
[1] = weight loss products; Sources: FDA 2010, Natural Medicines Comprehensive Database 2010; cited from earlier work
[2] = system: HFD-fed obese mice; assay: Liver and kidney histology (H&E); format: in vivo; settings: three weeks 100 μg/kg i.p.
[3] = system: mice; assay: Locomotor activity (Columbus Instruments Comprehensive Lab Animal Monitoring System); format: in vivo
Protocol: Locomotor activity was also normal in celastrol-treated mice. This is consistent with celastrol not having a toxic effect causing anorexia and weight loss, since the latter would be associated with decreased locomotor activity.
FIGS. 16A and 16B are graphs showing x (FIG. 16A) and y (FIG. 16B) direction ambulatory motion for control and celastrol in dark and light cycles. Toxicity was evaluated using Columbus Instruments Comprehensive Lab Animal Monitoring System we have measure the locomotor activity of the animals.

[4] = system: alanine transaminase (ALT); assay: Serum ALT by ELISA; format: in vivo; settings: three weeks 100 μg/kg i.p., HFD-fed obese mice
Protocol: (§1) To investigate the effect of celastrol administration on liver function, serum levels of alanine transaminase (ALT) and aspartate transaminase (AST) were measured in mice following three weeks of celastrol treatment (100 μg/kg, i.p.). ALT and AST were measured using an enzyme-linked immunosorbent assay (ELISA) kit (from Bio Scientific).

[5] = system: aspartate transaminase (AST); assay: Serum AST by ELISA; format: in vivo; settings: three weeks 100 μg/kg i.p., HFD-fed obese mice
Protocol: as §1

[6] = system: HFD-fed obese mice; assay: Leptin injection upon acute celastrol treatment, HFD-fed obese mice; format: in vivo
Protocol: (§2) It was therefore hypothesized that celastrol exerts anti-obesity effects through increasing leptin sensitivity in the brains of the HFD-fed obese mice. To test this hypothesis, leptin was administered to celastrol- or vehicle-treated HFD-fed obese animals. To avoid any possible leptin sensitizing effect of weight loss or decreased food intake created by celastrol administration, leptin injections were carried out upon acute celastrol treatment as described below.
(§3) Lean and HFD-fed obese mice were divided into four groups: 1) DMSO+saline, 2) DMSO+leptin, 3) celastrol+saline, and 4) celastrol+leptin (n=3 per group). Mice were injected (ip) with 100 μg/kg celastrol or vehicle (DMSO) one hour before dark cycle (day zero). 24 hours later, mice were injected for a second time with celastrol or DMSO (day 1), and all animals were then taken to 24 hour-fasting. On day two, at 21 hours of fasting, mice received a final injection of DMSO or celastrol. 30 minutes prior to dark cycle, at 23.5 hour of fasting, mice received a single ip injection of leptin (10 mg/kg, dissolved in saline), or saline. […] 1, 3, 6, 15, and 24-hour food intake and 24-hour body weight changes were recorded (FIG. 7A). […] This is clearly evident when food intake of the celastrol-treated mice is calculated in percent values (FIG. 7B). […]

[7] = system: lean mice; assay: Leptin injection upon acute celastrol treatment, lean mice; format: in vivo; settings: 6-hour time point, leptin 10 mg/kg ip, DMSO or celastrol 100 μg/kg ip pre-treatment
Protocol: as §2, §3

[Cr] [Chromium]
Safety [1]: Likely safe

CC1=C(O)C(=O)C=C2C1=CC=C1[C@@]2(C)CC[C@@]2(C)[C@@H]3C[C@](C)(C(=O)O)CC[C@]3(C)CC[C@]12C [celastrol]
kidney morphology [2]: no detectable change
locomotor activity ([3]; celastrol-treated mice): normal
x and y direction ambulatory motion counts ([3]; dark and light cycles, versus control): not significantly different
visible sign of sickness and toxicity ([3]; drug treated mice): do not show any visible sign
ALT levels [4]: decreases
AST levels [5]: decreases

Conjugated linoleic acid [Conjugated linoleic acid (CLA)]
Safety [1]: Possibly safe

B1: leptin: peptide hormone regulating food intake and body weight; injected ip dissolved in saline (protein, UniProt P41160 22-167, looked up)
Leptin: VPIQKVQDDTKTLIKTIVTRINDISHTQSVSAKQRVTGLDFIPGLHPILSLSKMDQTLAVYQQVLTSLPSQNVLQIANDLENLRDLLHLLAFSKSCSLPQTSGLQKPESLDGVLEASLYSTEVVALSRLQGSLQDILQQLDVSPEC
decrease in food intake upon leptin injection ([6]; 6-hour time point, leptin 10 mg/kg ip, DMSO or celastrol 100 μg/kg ip pre-treatment): approximately 40%
24-hour body weight change ([6]; 24 hour ad libitum feeding period after 24-hour fasting): resistant
decrease in food intake upon leptin injection [7]: approximately 40%
